Experimental findings from ChEMBL document CHEMBL1134448, “Design, synthesis, and proposed active site binding analysis of monocyclic 2-azetidinone inhibitors of prostate specific antigen” (J Med Chem, 2001) are described below.

pIC50: −log10 of the molar value.

The target of this experiment is Prostate-specific antigen (KLK3) (Homo sapiens) (UniProt P07288). Nature of the experiment: Inhibition of Prostate specific antigen PSA (Serine Protease).
Chain of Prostate-specific antigen (KLK3) (Homo sapiens) (P07288 whole entry, looked up): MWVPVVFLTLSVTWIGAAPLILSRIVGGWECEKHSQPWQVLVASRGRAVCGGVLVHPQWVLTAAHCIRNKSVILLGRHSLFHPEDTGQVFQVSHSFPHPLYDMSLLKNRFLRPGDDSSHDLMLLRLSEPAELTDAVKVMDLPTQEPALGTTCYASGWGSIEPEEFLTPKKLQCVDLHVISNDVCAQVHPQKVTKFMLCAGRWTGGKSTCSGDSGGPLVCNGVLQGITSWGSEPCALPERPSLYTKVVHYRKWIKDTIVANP
With `O=C(O)c1ccc(COC(=O)[C@@H]2[C@H](Cc3ccccc3)C(=O)N2C(=O)Cc2cccc(C(=O)OCc3ccccc3)c2)cc1`, the pIC50 (commonly the negative decadic logarithm of the IC50, by convention in mol/L) is 5.05.

As to `O=C(OCc1ccccc1)c1cccc(CC(=O)N2C(=O)[C@@H](Cc3ccc(O)cc3)[C@H]2C(=O)OCc2ccccc2)c1` (stereo in doubt; 16), the pIC50 is 6.46.

In the case of `O=C(OCc1ccccc1)c1cccc(CC(=O)N2C(=O)[C@@H](Cc3ccccc3)[C@H]2C(=O)OCc2ccccc2)c1`, the pIC50 was 5.84.

The compound `O=C(O)c1ccc(COC(=O)[C@@H]2[C@H](Cc3ccc(O)cc3)C(=O)N2C(=O)Cc2cccc(C(=O)OCc3ccccc3)c2)cc1` showed a pIC50 of 5.46.

For the compound `O=C(O)c1ccc(COC(=O)c2cccc(CC(=O)N3C(=O)[C@@H](Cc4ccccc4)[C@H]3C(=O)OCc3ccc(C(=O)O)cc3)c2)cc1`, the pIC50 is 5.23.

Turning to `O=C(OCc1ccccc1)c1cccc(CC(=O)N2C(=O)[C@@H](Cc3ccc(O)cc3)[C@H]2C(=O)OCc2ccccc2)c1` (stereo in doubt; (3S,4S)-18), the pIC50 is 6.65.
